Assays:
[1] = system: colon cancer cells (SW480); settings: SW480 tumors in nude mice
Method: The experiment was carried out using compound a in this example. Under sterile conditions, a suspension of colon cancer cells (SW480) in logarithmic growth phase (cell concentration was adjusted to 1×10^7/mL with physiological saline) was inoculated subcutaneously to 5 to 6 weeks old balb/c female nude mice on the right rear back, and each nude mice was inoculated at an amount of 0.3 ml, i.e. the number of cells contained was 3×10^6 per each mouse. 10 days later, subcutaneous transplanted tumor of 100-250 mm^3 appeared. The nude mice with tumor were randomly divided into several groups, each containing 6 mice: (1) control group; (2) doxorubicin group; (3) doxorubicin+amifostine; (4) doxorubicin+Celecoxib+intermediate II; (5) doxorubicin+intermediate I+intermediate II; (6) doxorubicin+low-dose compound a (6 mg/kg/day); (7) doxorubicin+high-dose compound a (15 mg/kg/day). Firstly, the following compounds were administered to each group of nude mice with tumor according to the following doses: intermediate I and intermediate II (3 mg/kg/day respectively), amifostine (400 mg/kg/day), Celecoxib (6 mg/kg/day). Except that amifostine was subcutaneously injected (30 minutes before irradiation), the other protective agents were administered by gavage. The above drugs were administered every day for 5 weeks continuously. 12 hours after the administration, doxorubicin (2.5 mg/kg) was injected intraperitoneally, and it was administered once every 2 days for 5 weeks. During the dosing period, the body weight of the nude mice was measured every two days with a precision electronic balance. The growth of the tumor and whether or not red and swelling and rupture occur were observed every day after inoculation. After tumor formation, the surface morphology and activity of the transplanted tumor were examined, and the longest diameter (a) and the shortest diameter (b) of the tumor nodules were measured every 3 days with a vernier caliper. […] 21 days after administration of doxorubicin, the tail vein blood of mice was collected to perform leukocyte count and blood biochemical index analysis. The tumor tissue and normal peripheral tissues were taken on the last day of treatment, and the content of the intermediate I therein was measured by HPLC (FIG. 9a). At the same time, paraffin sections were made, the occurrence of apoptosis was detected by terminal labeling (FIG. 9b), and the relative survival percentages of normal tissue and tumor tissue were calculated (the results are summarized in FIG. 9b).

[2] = system: A549 cells; experiment: A549 transplanted tumors in nude mice, compound used alone; format: in vivo
Method: Except cisplatin (intraperitoneal injection, once a week), all compounds were administered by gavage, once a day for 5 weeks continuously.

[3] = system: HT-29 cells; experiment: HT-29 transplanted tumors in nude mice, compound a in combination with doxorubicin; format: in vivo; settings: Doxorubicin 2 mg/kg/week i.p. or compound a 3 mg/kg/day gavage, 4 weeks
Method: Compound a was administered by gavage once a day for 4 weeks continuously; Doxorubicin was injected intraperitoneally once a week for 4 weeks. Body weight and tumor volume of animals were measured and calculated according to Example 9.

[4] = system: mice (C57BL/6J); experiment: Survival rate of mice irradiated by γ-rays; format: in vivo; settings: 30th day after 8.75 Gy γ-rays, 16 mice per group; for number of survived mice: intermediates each 3 mg/kg/day gavage; for survival rate: compounds 6 mg/kg/day gavage, amifostine 400 mg/kg/day i.p.
Method: In this experiment, 10-week-old male mice (C57BL/6J) weighing about 20 g were used as subjects, and 16 mice were taken as a group. The mice were divided into the following groups: 1. no γ-ray+no drug; 2. γ-ray+no drug; 3. γ-ray+amifostine; 4. γ-ray+intermediate I+intermediate II; 5. γ-ray+compound a; 6. γ-ray+compound b; and 7. γ-ray+compound d. Firstly, each group of mice was administered with a protective agent, and the specific amounts were as follows: compound a, b and d: 6 mg/kg/day (8.1 μM), amifostine: 400 mg/kg/day (1.5 mM), intermediate I+Intermediate II: each 3 mg/kg/day (8.1 μM). Except that amifostine was intraperitoneally injected (30 minutes before irradiation, amifostine was administered), the other protective agents were administered by gavage. 12 hours after administration, systemic irradiation was performed using cobalt 60γ-rays at a dose of 8.75Gy and a dose rate of 0.35 Gy/min for 25 minutes, with the radiation source 80 cm away from the mice. The mice were irradiated once, and continuously administered with drugs once daily for 10 days after irradiation. The number of survival mice was recorded. The percentage obtained by dividing the number of survival mice by the total number of mice in the experimental group (16 mice) is survival rate of mice, and the results are summarized in FIG. 7. […] It is noteworthy that in the experimental group using intermediate I+intermediate II, only one mouse is survived.

[5] = system: SW480 cells; experiment: Degradation of the compound in cells (HPLC); format: in vitro ADME; settings: 10 μM
Method: Determination of the stability of the compound: (1) degradation of the compound in plasma: Compound a (10 μM) dissolved in DMSO was cultured with 10% bovine serum medium (5 mL) at 37° C. 200 μL of medium was collected at the time points of 1, 3, 6, 12 and 24 hours, respectively, added with equal volume of acetonitrile for reaction, and subjected to high speed centrifugation (13,000 rpm) for 5 minutes. The level of degradation of the compound was determined by HPLC. (2) Degradation of the compound in cells: the compound a dissolved in DMSO was added at a final concentration of 10 μM to a 6-well culture dish containing SW480 cells and incubated in carbon dioxide incubator. The cells were collected at the time points of 1, 3, 6, 12, and 24 hours, respectively, washed fully, then extracted with 0.5 mL of acetonitrile, and centrifuged at high speed (12,000 rpm) for 5 minutes. The level of degradation of the compound in the organic phase was determined by HPLC.

[6] = Metabolic kinetics in mice after gavage (plasma level of intermediate II); format: in vivo
Method: Metabolic kinetics of the compound a in mice: the compound a and the intermediate II were administered to mice respectively by gavage at a dose of 25 mg/kg each time and 12 mg/kg each time (equimolar concentration). Equal volume of blood samples were collected at the time points of 1, 3, 5, 9, 18 and 24 hours, and centrifuged immediately. 100 μL of supernatant (plasma) was got, added with 2-fold volume of acetonitrile immediately to extract the blood samples twice, and centrifuged at high speed (12,000 rpm) for 5 minutes. The level of the intermediate II in the organic phase was determined by HPLC, and the content of the compound fragments was detected by LC-MS. Pharmacokinetics was analyzed by Pharmacokinetics Solutions 2.0 software (Summit Research Services, Montrose, Colo., USA).

[7] = Content of active components in tumor tissue and normal peripheral tissue (HPLC); format: in vivo; settings: last day of treatment
Method: The experiment was carried out using compound a in this example. Under sterile conditions, a suspension of colon cancer cells (SW480) in logarithmic growth phase (cell concentration was adjusted to 1×10^7/mL with physiological saline) was inoculated subcutaneously to 5 to 6 weeks old balb/c female nude mice on the right rear back, and each nude mice was inoculated at an amount of 0.3 ml, i.e. the number of cells contained was 3×10^6 per each mouse. 10 days later, subcutaneous transplanted tumor of 100-250 mm^3 appeared. […] During the dosing period, the body weight of the nude mice was measured every two days with a precision electronic balance. […] After tumor formation, the surface morphology and activity of the transplanted tumor were examined, and the longest diameter (a) and the shortest diameter (b) of the tumor nodules were measured every 3 days with a vernier caliper. […] The tumor tissue and normal peripheral tissues were taken on the last day of treatment, and the content of the intermediate I therein was measured by HPLC (FIG. 9a). At the same time, paraffin sections were made, the occurrence of apoptosis was detected by terminal labeling (FIG. 9b), and the relative survival percentages of normal tissue and tumor tissue were calculated (the results are summarized in FIG. 9b).

[8] = gavage, compound a 25 mg/kg, intermediate II 12 mg/kg (equimolar), intermediate II measured in plasma

Compound | effect on tumor / on sensitivity of tumor to doxorubicin ([1]; doxorubicin 2.5 mg/kg i.p. every 2 days for 5 weeks, agents daily) | death of animals during treatment ([1]; doxorubicin 2.5 mg/kg i.p., 6 mice per group) | protection of normal tissue and cells from doxorubicin ([1]; with doxorubicin) | inhibition of tumors ([2]; A549, high-dose compound a (25 mg/kg/day) gavage, 5 weeks) [%] | inhibitory effect on the tumor ([2]; A549, cisplatin 5 mg/kg/week i.p., compound a 5 and 25 mg/kg/day, intermediates 12.5 mg/kg/day each) | body weights of the animals ([2]; A549, high dose, during administration) | inhibition of the tumor, administered alone [3] | number of survived mice [4] [mice] | survival rate [4] [%] | compound hydrolyzed in cells ([5]; within 3 hours) [%] | compound hydrolyzed in cells ([5]; within 24 hours) | content of intermediate II in plasma, versus mice given intermediate II ([6]; gavage 25 mg/kg) | metabolites in plasma ([6]; gavage 25 mg/kg) | AUC0 [6, 8] [ng·h/mL] | Cmax [6, 8] [ng/mL] | T1/2 [6, 8] [h] | Tmax [6, 8] [h] | content of active components in tumor tissues versus peripheral normal tissues [7]
COC1=C(OC)C(=O)C(CCCCCCCCCCOC(=O)Cc2c(C)n(C(=O)c3ccc(Cl)cc3)c3cc(OC)ccc23)=C(C)C1=O [compound a] | significantly enhance the sensitivity of tumor cells to chemotherapy | No death occurs | effective in inhibiting the killing effect of Doxorubicin on normal leukocytes, cardiomyocytes and peripheral normal tissues around the tumor | ≥ 60 | dose-dependent inhibitory effect against tumor | not significantly reduced | only slightly inhibited | 10 | 62.5 | ~80 | completely hydrolyzed | significantly higher | significantly reduced | 63200 | 19800 | 7.6 | 5 | evidently higher
COc1ccc2c(CC(=O)OCCCCCCCCCCc3c(C)c(O)c(OC)c(OC)c3O)c(C)n(C(=O)c3ccc(Cl)cc3)c2c1 [compound b] |  |  |  |  |  |  |  | 12 | 75 |  |  |  |  |  |  |  |  | 
